Results taken from patent publication US20050101595A1, “N-containing cycloalkyl-substituted amino-thiazole derivatives and pharmaceutical compositions for inhibiting cell proliferation and methods for their use” (PFIZER INC., priority 2003, published 2005).
Structures can show the parent of a compound that is named as a salt. Where two headings read alike, the source gives them in different places.

How the values were obtained:
HCT-116 cell line = test: Inhibition of cell growth, tetrazolium salt (MTT) assay; type: cell-based; settings: for IC50: Homo sapiens, HCT-116, 120 h, MTT, three to five days, read-out: HCT-116 IC50; for HCT-116 % Inhibition at 0.25 μM: 0.25 μM compound
Procedure, shortened: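 Growth inhibition is scored relative to cells receiving only 0.5% (v/v) DMSO. Plated cells rest 4 h, then take compound for three to five days at 37° C; MTT reduction to formazan is read at 540 nm.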

[1] = molecular target: human CDK4 and genetically truncated (1-264) cyclin D3 (Homo sapiens, UniProt P11802); test: Inhibition of CDK4/Cyclin D Retinoblastoma Kinase Activity; type: biochemical; settings: for Ki: apparent Ki, CDK4/truncated cyclin D3, Rb fragment substrate, 25 μM ATP
Chain of human CDK4 and genetically truncated (1-264) cyclin D3 (P11802 whole entry, the tested form may be a part): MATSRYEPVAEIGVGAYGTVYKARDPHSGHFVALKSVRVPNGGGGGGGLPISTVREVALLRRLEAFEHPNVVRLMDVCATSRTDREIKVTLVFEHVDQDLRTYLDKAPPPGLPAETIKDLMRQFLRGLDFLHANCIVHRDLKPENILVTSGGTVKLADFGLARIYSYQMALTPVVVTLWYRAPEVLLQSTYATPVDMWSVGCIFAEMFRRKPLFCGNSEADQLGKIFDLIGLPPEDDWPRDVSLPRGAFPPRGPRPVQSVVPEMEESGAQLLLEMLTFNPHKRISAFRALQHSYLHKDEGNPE
Chain of human CDK4 and genetically truncated (1-264) cyclin D3 (P30281 1-264 partner): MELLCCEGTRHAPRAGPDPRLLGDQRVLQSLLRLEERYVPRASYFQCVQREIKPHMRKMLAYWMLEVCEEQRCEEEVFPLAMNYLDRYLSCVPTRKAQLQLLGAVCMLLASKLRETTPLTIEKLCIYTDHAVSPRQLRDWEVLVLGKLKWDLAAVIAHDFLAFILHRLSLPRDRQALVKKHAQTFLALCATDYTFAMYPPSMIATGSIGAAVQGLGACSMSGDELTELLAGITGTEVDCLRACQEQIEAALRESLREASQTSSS
Procedure, shortened: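 Read-out: 32P/33P incorporation into Rb fragment (386-928) captured on nitrocellulose, phosphorimager. Enzyme 5 nM CDK4/cyclin D3(1-264) from insect cells; ATP 25 μM, pH 7.4, 30 °C, 20 min (60 min for tight binders). Ki from competitive fits.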

CDK2/Cyclin A = CDK2/Cyclin A (Homo sapiens, UniProt P24941); test: Inhibition of CDK2/Cyclin A Retinoblastoma Kinase Activity; type: biochemical; settings: for Ki: apparent Ki, CDK2/proteolyzed cyclin A, Rb fragment substrate, 25 μM ATP; for CDK2 % Inhibition At 0.03 μM: Table 2
Procedure, shortened: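 Human CDK2, baculovirus/insect-cell expressed, complexed with proteolyzed cyclin A (10 nM or 19 nM CDK2) phosphorylates an Rb fragment with 25 μM [32P/33P]ATP at pH 7.4, 30° C, for 60 or 75 minutes under initial-rate conditions. Filter-captured radioactivity is read by phosphorimager; apparent Ki from competitive-inhibition fits.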

## Nc1nc(NC2CCN(C(=O)/C=C/c3ccncc3)CC2)sc1C(=O)c1c(F)cccc1F [Example D6, 1-{[4-Amino-5-(2,6-difluoro-benzoyl)-thiazol-2-ylamino]-piperidin-1-yl)3-pyridin-4-yl-prop-2(E)-enone]
HCT-116 cell line; first HCT-116 column (c4)
  IC50: 1900 nM
HCT-116 cell line; second HCT-116 column (c5)
  IC50: 3900 nM
[1]
  Ki: 67 nM
CDK2/Cyclin A
  Ki: 160 nM

## CC(NC(=O)N1CCC(Nc2nc(N)c(C(=O)c3c(F)cccc3F)s2)CC1)c1ccccc1 (stereo not drawn) [Example O66]
HCT-116 cell line; HCT-116, Table 2, 0.25 µM
  HCT-116 % Inhibition at 0.25 μM: 36%
[1]; 0.03 μM compound, Table 2, 0.03 µM
  CDK4 % Inhibition at 0.03 μM: −1%
CDK2/Cyclin A; 0.03 μM compound, 0.03 µM
  CDK2 % Inhibition At 0.03 μM: 32%

## CC(=O)c1cccc(NC(=O)N2CCC(Nc3nc(N)c(C(=O)c4c(F)cccc4F)s3)CC2)c1 [Example O47]
HCT-116 cell line; HCT-116, Table 2
  HCT-116 % Inhibition at 0.25 μM: 35%
[1]; 0.03 μM compound, Table 2
  CDK4 % Inhibition at 0.03 μM: 14%
CDK2/Cyclin A; 0.03 μM compound
  CDK2 % Inhibition At 0.03 μM: 35%

## COc1ccc(/C=C/C(=O)N2CCC(Nc3nc(N)c(C(=O)c4c(F)cccc4F)s3)CC2)c(Cl)c1OC [Example C7, 1-{4-[4-Amino-5-(2,6-difluoro-benzoyl)-thiazol-2-ylamino]-piperidin-1-yl}-3-(2-chloro-3,4-dimethoxy-phenyl)-propenone]
HCT-116 cell line; first HCT-116 column (c4)
  IC50: 600 nM
HCT-116 cell line; second HCT-116 column (c5)
  IC50: 1600 nM
[1]
  Ki: 40 nM
CDK2/Cyclin A
  Ki: 32 nM

## Nc1nc(NC2CCN(C(=O)OCc3ccc([N+](=O)[O-])cc3)CC2)sc1C(=O)c1c(F)cccc1F [Example Q85]
HCT-116 cell line; 0.1 μM compound, HCT-116, Table 4
  HCT-116 % Inhibition at 0.1 μM: 1%
HCT-116 cell line; HCT-116, Table 4
  HCT-116 % Inhibition at 0.25 μM: 31%
[1]; 0.03 μM compound, Table 4
  CDK4 % Inhibition at 0.03 μM: 55%
CDK2/Cyclin A; 0.03 μM compound, Table 4
  CDK2 % Inhibition at 0.03 μM: 42%

## Nc1nc(NC2CCN(S(=O)(=O)c3ccc(C(=O)O)cc3)CC2)sc1C(=O)c1c(F)cccc1F [Example P21]
HCT-116 cell line; 0.1 μM compound, HCT-116, Table 3
  HCT-116 % Inhibition at 0.1 μM: 19%
HCT-116 cell line; HCT-116, Table 3
  HCT-116 % Inhibition at 0.25 μM: 29%
[1]; 0.03 μM compound, Table 3
  CDK4 % Inhibition at 0.03 μM: 32%
CDK2/Cyclin A; 0.03 μM compound, Table 3
  CDK2 % Inhibition at 0.03 μM: 23%

## C=Cc1ccc(C(=O)N2CCC(Nc3nc(N)c(C(=O)c4c(F)cccc4F)s3)CC2)cc1 [Example R156]
HCT-116 cell line; HCT-116 cells, at 0.1 μM
  HCT-116 % Inhibition at 0.1 μM: 0%
HCT-116 cell line; HCT-116 cells
  HCT-116 5 Inhibition at 0.25 μM: 43
[1]; at 0.03 μM
  CDK4 % Inhibition at 0.03 μM: 89%
CDK2/Cyclin A; at 0.03 μM
  CDK2 % Inhibition at 0.03 μM: 65%

## CC(=O)Oc1ccccc1C(=O)N1CCC(Nc2nc(N)c(C(=O)c3c(F)cccc3F)s2)CC1 [Example R113]
HCT-116 cell line; HCT-116 cells, at 0.1 μM
  HCT-116 % Inhibition at 0.1 μM: 0%
HCT-116 cell line; HCT-116 cells
  HCT-116 5 Inhibition at 0.25 μM: 40
[1]; at 0.03 μM
  CDK4 % Inhibition at 0.03 μM: 48%
CDK2/Cyclin A; at 0.03 μM
  CDK2 % Inhibition at 0.03 μM: 44%

## Nc1nc(NC2CCN(S(=O)(=O)CCCc3nnn[nH]3)CC2)sc1C(=O)c1c(F)cccc1F [Example K18, 1-(4-Amino-2-{1-[3-(1H-tetrazol-5-yl)-propane-1-sulfonyl]-piperidin-4-ylamino}-thiazol-5-yl)-1-(2,6-difluoro-phenyl)-methanone.]
HCT-116 cell line; first HCT-116 column (c4)
  IC50: > 5000 nM
HCT-116 cell line; second HCT-116 column (c5)
  IC50: > 5000 nM
[1]
  Ki: 18 nM
CDK2/Cyclin A
  Ki: 3.1 nM

## Nc1nc(NC2CCN(S(=O)(=O)c3ccc(-c4cccnc4)cc3)CC2)sc1C(=O)c1c(F)cccc1F [Example I8, 1-{4-Amino-2-[1-(4-pyridin-3-yl-benzenesulfonyl)-piperidin-4-ylamino]-thiazol-5-yl}-1-(2,6-difluoro-phenyl)-methanone Trifluoroacetic Acid Salt]
HCT-116 cell line; first HCT-116 column (c4)
  IC50: 71 nM
HCT-116 cell line; second HCT-116 column (c5)
  IC50: 500 nM
[1]
  Ki: 0.48 nM
CDK2/Cyclin A
  Ki: 0.3 nM

## Nc1nc(NC2CCN(C(=O)NC3CCCCC3)CC2)sc1C(=O)c1c(F)cccc1F [Example O34]
HCT-116 cell line; HCT-116, Table 2
  HCT-116 % Inhibition at 0.25 μM: 22%
[1]; 0.03 μM compound, Table 2
  CDK4 % Inhibition at 0.03 μM: 6%
CDK2/Cyclin A; 0.03 μM compound
  CDK2 % Inhibition At 0.03 μM: 30%

## CC(C)(Oc1ccc(Cl)cc1)C(=O)N1CCC(Nc2nc(N)c(C(=O)c3c(F)cccc3F)s2)CC1 [Example R66]
HCT-116 cell line; HCT-116 cells, at 0.1 μM
  HCT-116 % Inhibition at 0.1 μM: 0.54%
HCT-116 cell line; HCT-116 cells
  HCT-116 5 Inhibition at 0.25 μM: 42
[1]; at 0.03 μM
  CDK4 % Inhibition at 0.03 μM: 27%
CDK2/Cyclin A; at 0.03 μM
  CDK2 % Inhibition at 0.03 μM: 16%
